Measurements as given in article PMC2763540 (Chemistry & biology, 2009).
Values joined by “and” are separate entries in the source; they are usually repeats but may differ in a detail not shown here. Equal entries are not always repeated. “Also recorded” adds a separate entry of the source. Where two headings read alike, the source gives them in different places.

Assays:
[1] = system: hoiamide A-induced elevation of neuronal [Na+]i in neocortical neurons; format: cell-based, mouse (Swiss-Webster)
[2] = system: neurotoxin site 2 on VGSCs; conditions: cited from earlier work
[3] = system: voltage-gated sodium channels; format: cell-based, mouse (Swiss-Webster)
[4] = system: neurotoxin site 5 on VGSCs; conditions: cited from earlier work
[5] = system: neurotoxin site 2 on VGSCs; format: binding, mouse (Swiss-Webster)
[6] = system: neurotoxin site 2 on VGSCs; format: cell-based, mouse (Swiss-Webster)
[7] = system: mouse neocortical neurons
[8] = system: voltage-gated sodium channels; conditions: cited from earlier work

C[C@]12N[C@H](Cc3ccccc31)c1ccccc12 [MK-801]
effect on hoiamide A-induced elevation of neuronal [Na+]i [1]: partial, but statistically significant, decrease

NS(=O)(=O)c1cccc2c1c([N+](=O)[O-])cc1nc(O)c(O)nc12 [NBQX]
effect on hoiamide A-induced Na+ influx [1]: no effect

NC1=N[C@H](O)[C@H]2[C@H]3O[C@]4(O)O[C@@H]([C@@H](O)[C@@]2(N1)[C@@H]4O)[C@]3(O)CO [TTX, tetrodotoxin]
effect on hoiamide A-induced elevation of neuronal [Na+]i [1]: eliminated the hoiamide A-induced elevation of neuronal [Na^+]i; also recorded: inhibition of hoiamide A-induced elevation of neuronal [Na^+]i

C=C(C=O)C[C@@H]1C[C@H](O)[C@]2(C)O[C@@H]3C[C@@H]4O[C@@H]5C[C@]6(C)O[C@]7(C)CC[C@@H]8O[C@@H]9C[C@]%10(C)O[C@@H]%11C(C)=CC(=O)O[C@H]%11C[C@H]%10O[C@H]9C[C@@H](C)[C@H]8O[C@H]7C[C@H]6O[C@H]5C/C=C\[C@H]4O[C@H]3C[C@H]2O1 [brevetoxin]
effect on [3H]BTX specific binding (allosteric) [2]: dramatically increased

CC1(C)[C@H](C(=O)O[C@H](C#N)c2cccc(Oc3ccccc3)c2)[C@@H]1C=C(Br)Br [deltamethrin]
sodium influx when given alone [3]: inactive alone | effect on maximum response of hoiamide A-induced sodium influx [1]: significantly increased the maximum response; also recorded: enhance hoiamide A-induced elevation of neuronal [Na^+]i | effect on [3H]BTX specific binding (allosteric) [2]: dramatically increased

C=CC/C=C\C=C/[C@H]1O[C@H]2C[C@H]3O[C@H]4CC[C@H]5O[C@H]6C[C@@]7(C)O[C@@]8(C)[C@@H](O)C[C@H](CCCO)O[C@@H]8C[C@@H]7O[C@@H]6C[C@@H]5O[C@]4(C)C[C@]3(C)O[C@@H]2C=C[C@]1(C)O [gambierol]
effect on PbTx-1 induced elevation of neuronal [Na+]i [4]: inhibited the full agonist PbTx-1 induced elevation of neuronal [Na^+]i | type of agonism at neurotoxin site 5 [4]: low efficacy partial agonist at neurotoxin site 5

CCC[C@@H](C)[C@H](O)[C@H](C)[C@H]1OC(=O)[C@H]([C@@H](C)O)NC(=O)[C@H](C(C)C)OC(=O)[C@H](C)[C@H](O)[C@H]([C@@H](C)CC)NC(=O)[C@@]2(C)CSC(=N2)[C@@]2(C)CSC(=N2)c2csc(n2)C[C@H](OC)[C@@H]1C [hoiamide A]
elevation of neuronal [Na+]i / sodium influx [3]: rapid and concentration-dependent elevation of neuronal [Na^+]i; also recorded: VGSC activator; also recorded: maximum sodium influx that was less than that of the full agonist, batrachotoxin | maximum response, elevation of neuronal [Na+]i [3]: less than 20 mM | relative efficacy for elevation of neuronal [Na+]i [3]: 0.38 | type of agonism at neurotoxin site 2 on VGSCs [3]: partial agonist at neurotoxin site 2; also recorded: partial agonism at the neurotoxin site 2 on VGSCs | EC50 ([3]; read-out: EC50 for hoiamide-induced sodium influx): 2310 nM | inhibition of [3H]BTX specific binding [5]: concentration-dependent inhibition of [^3H]BTX specific binding; also recorded: inhibit the specific binding of [^3H]BTX to VGSCs | IC50 ([5]; read-out: IC50, inhibition of [3H]batrachotoxin binding): 92.8 nM | change of hoiamide A EC50 value by modulator [1]: without altering the hoiamide A EC50 value; also recorded: no corresponding effect on the hoiamide A EC50 value | maximum response of hoiamide A-induced sodium influx, AUC [1]: 89.9 fluorescence x min and 141.4 fluorescence x min and 143.4 fluorescence x min | effect on batrachotoxin-induced sodium influx (SBFI AUC) [6]: concentration-dependent reduction in batrachotoxin-induced sodium influx; also recorded: reversal of batrachotoxin (30 nM)-induced elevation of neuronal [Na^+]i | IC50 [7]: 47.5 nM | cytotoxicity to cancer cells (cancer cells): modest cytotoxicity

COc1ccc(C(=O)O[C@H]2CC[C@@]3(C)[C@@H]4CC[C@H]5[C@]6(O)C[C@H](O)[C@@]7(O)[C@@H](CN8C[C@@H](C)CC[C@H]8[C@@]7(C)O)[C@]6(O)C[C@@]53O[C@]24O)cc1OC [veratridine]
inhibition of [3H]BTX specific binding [5]: much less potent than hoiamide A; also recorded: inhibit the specific binding of [^3H]BTX to VGSCs | IC50 ([5]; read-out: IC50, inhibition of [3H]BTX specific binding): 33000 nM

batrachotoxin
elevation of neuronal [Na+]i / sodium influx [3]: rapid and concentration-dependent elevation of neuronal [Na^+]i | maximum response, elevation of neuronal [Na+]i [3]: greater than 60 mM | EC50 ([3]; read-out: EC50 for batrachotoxin-induced elevation of neuronal [Na+]i): 11.4 nM | type of agonism at neurotoxin site 2 [8]: full agonist at neurotoxin site 2

brevetoxin 3 [PbTx-3]
sodium influx when given alone [3]: inactive alone | effect on maximum response of hoiamide A-induced sodium influx [1]: significant increase in the maximum response; also recorded: enhance hoiamide A-induced elevation of neuronal [Na^+]i
